Assay results reported in patent US9255100B2 (BAYER INTELLECTUAL PROPERTY GMBH, priority 2010, dated 2016).

The compounds below were run against T1, N-terminally GST-tagged human full length recombinant Mps-1 kinase (Homo sapiens, UniProt P33981) (assay: Mps-1 kinase assay (TR-FRET)). Conditions: 10 μM ATP, 1 μM peptide substrate, 60 min at 22° C., read-out: Mps1 IC50.
T1 construct: N-terminally GST-tagged human full length recombinant Mps-1 kinase; purchased Invitrogen, Karslruhe, Germany PV4071
T1 sequence (P33981 1-857): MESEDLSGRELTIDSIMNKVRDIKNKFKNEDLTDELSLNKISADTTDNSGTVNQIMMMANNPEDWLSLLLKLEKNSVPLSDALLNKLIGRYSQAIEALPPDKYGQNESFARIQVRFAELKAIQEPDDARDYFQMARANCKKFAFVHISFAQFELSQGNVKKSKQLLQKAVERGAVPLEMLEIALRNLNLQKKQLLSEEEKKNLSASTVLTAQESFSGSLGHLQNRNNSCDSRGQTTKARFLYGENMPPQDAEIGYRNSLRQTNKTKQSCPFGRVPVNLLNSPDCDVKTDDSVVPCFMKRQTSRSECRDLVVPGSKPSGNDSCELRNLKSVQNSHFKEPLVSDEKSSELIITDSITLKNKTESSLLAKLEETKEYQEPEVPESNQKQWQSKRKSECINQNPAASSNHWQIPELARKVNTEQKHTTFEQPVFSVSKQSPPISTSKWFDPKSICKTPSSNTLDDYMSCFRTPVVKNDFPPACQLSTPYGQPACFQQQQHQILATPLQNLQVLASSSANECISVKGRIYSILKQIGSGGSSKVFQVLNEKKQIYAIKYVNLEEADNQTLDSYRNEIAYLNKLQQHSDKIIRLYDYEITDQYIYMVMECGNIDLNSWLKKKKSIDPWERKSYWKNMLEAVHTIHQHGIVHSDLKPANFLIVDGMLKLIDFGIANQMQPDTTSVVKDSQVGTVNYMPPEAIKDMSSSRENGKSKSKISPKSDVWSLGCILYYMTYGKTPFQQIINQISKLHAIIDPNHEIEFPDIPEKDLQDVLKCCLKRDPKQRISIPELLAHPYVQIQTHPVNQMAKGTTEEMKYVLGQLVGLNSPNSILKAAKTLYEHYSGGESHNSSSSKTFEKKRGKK
Assay type: biochemical
Method in brief: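 TR-FRET signal between a Europium anti-phospho-Ser/Thr antibody and streptavidin-XLent reported phosphorylation of a biotinylated peptide by GST-tagged full-length Mps-1. Enzyme was near 1 nM final, chosen per lot for linearity.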

SMILES	IC50 [nM]
Cc1cc(-c2cnc3c(NCC4CC[S+]([O-])CC4)cc(Oc4cccc(F)c4)nn23)ccc1C(=O)NC1CC1 (mixture of isomers) [Example 298B, N-cyclopropyl-4-[6-(3-fluorophenoxy)-8-({[(cis/trans)-1-oxidotetrahydro-2H-thiopyran-4-yl]methyl}amino)imidazo[1,2-b]pyridazin-3-yl]-2-methylbenzamide]	0.1

Same assay, conditions: Mps1 IC50 [nM], 10 μM ATP, 1 μM peptide substrate, 60 min at 22° C.

SMILES	IC50 [nM]
Cc1cc(-c2cnc3c(NCCC(F)(F)F)cc(Nc4ccc(F)c(O)c4)nn23)ccc1C(=O)NC1CC1 [Example 442, N-cyclopropyl-4-{6-[(4-fluoro-3-hydroxyphenyl)amino]-8-[(3,3,3-trifluoropropyl)amino]imidazo[1,2-b]pyridazin-3-yl}-2-methylbenzamide]	0.1
Cc1cc(-c2cnc3c(NCCC(F)(F)F)cc(Nc4ccc(Cl)cc4)nn23)ccc1C(=O)NC1CC1 [Example 374, 4-{6-[(4-chlorophenyl)amino]-8-[(3,3,3-trifluoropropyl)amino]imidazo[1,2-b]pyridazin-3-yl}-N-cyclopropyl-2-methylbenzamide]	0.3
Cc1cc(-c2cnc3c(NCC(C)(C)O)cc(Oc4cncnc4)nn23)ccc1C(=O)NC1CC1 [Example 265, N-cyclopropyl-4-{8-[(2-hydroxy-2-methylpropyl)amino]-6-(pyrimidin-5-yloxy)imidazo[1,2-b]pyridazin-3-yl}-2-methylbenzamide]	0.9
CCNC(=O)c1ccc(-c2cnc3c(NCCN4CCOCC4)cc(Oc4ccccc4C)nn23)cc1C [Example 589, N-ethyl-2-methyl-4-[6-(2-methylphenoxy)-8-{[2-(morpholin-4-yl)ethyl]amino}imidazo[1,2-b]pyridazin-3-yl]benzamide]	4.3
Cc1cc(-c2cnc3c(NCC(C)(C)O)cc(-c4ccc(F)cc4C)nn23)ccc1C(=O)NC1CC1 [Example 232, N-cyclopropyl-4-{6-(4-fluoro-2-methylphenyl)-8-[(2-hydroxy-2-methylpropyl)amino]imidazo[1,2-b]pyridazin-3-yl}-2-methylbenzamide]	1
COC(C)(C)CNc1cc(-c2ccccc2CO)nn2c(-c3ccc(C(=O)NC4CC4)c(C)c3)cnc12 [Example 38, N-cyclopropyl-4-{6-[2-(hydroxymethyl)phenyl]-8-[(2-methoxy-2-methylpropyl)amino]imidazo[1,2-b]pyridazin-3-yl}-2-methylbenzamide]	10.3
CC(=O)Nc1ccccc1-c1cc(NCC(C)C)c2ncc(-c3ccc(C(=O)NC4CC4)cc3)n2n1 [Example 107, 4-{6-[2-(Acetylamino)phenyl]-8-[(2-methylpropyl)amino]imidazo[1,2-b]pyridazin-3-yl}-N-cyclopropylbenzamide]	35.5
Cc1cc(-c2cnc3c(NC[C@@H]4CCCO4)cc(-c4ccnn4C)nn23)ccc1C(=O)NC1CC1 [Example 34, N-cyclopropyl-2-methyl-4-[6-(1-methyl-1H-pyrazol-5-yl)-8-{[(2S)-tetrahydrofuran-2-ylmethyl]amino}imidazo[1,2-b]pyridazin-3-yl]benzamide]	2.4
Cc1cc(-c2cnc3c(NCC(C)(C)O)cc(Oc4ccc(Cl)cc4)nn23)ccc1C(=O)NC1CC1 [Example 90, 4-{6-(4-Chlorophenoxy)-8-[(2-hydroxy-2-methylpropyl)amino]imidazo[1,2-b]pyridazin-3-yl}-N-cyclopropyl-2-methylbenzamide]	0.5
Cc1cc(-c2cnc3c(NCC4CCOC4)cc(Oc4cccc(F)c4)nn23)ccc1C(=O)NC1CC1 (centres unmarked) [Example 328, N-cyclopropyl-4-{6-(3-fluorophenoxy)-8-[(tetra-hydrofuran-3-ylmethyl)amino]imidazo[1,2-b]pyridazin-3-yl}-2-methyl-benzamide]	0.3
CC(C)CNc1cc(-c2cccnc2)nn2c(-c3ccc(C(=O)NC4CC4)cc3)cnc12 [Example 138, N-cyclopropyl-4-{8-[(2-methylpropyl)amino]-6-(pyridin-3-yl)imidazo [1,2-b]pyridazin-3-yl} benzamide]	2
Cc1cc(-c2cnc3c(NCC4CCSCC4)cc(Oc4cccc(F)c4)nn23)ccc1C(=O)NC1CC1 [Example 281, N-cyclopropyl-4-{6-(3-fluorophenoxy)-8-[(tetrahydro-2H-thiopyran-4-ylmethyl)amino]imidazo[1,2-b]pyridazin-3-yl}-2-methylbenzamide]	0.3
Cc1cc(-c2cnc3c(NCCC(F)(F)F)cc(Oc4cccc(F)c4)nn23)ccc1C(=O)NCCC(F)(F)F [Example 554, 4-{6-(3-fluorophenoxy)-8-[(3,3,3-trifluoropropyl)amino]imidazo[1,2-b]pyridazin-3-yl}-2-methyl-N-(3,3,3-trifluoropropyl)benzamide]	1.6
Cc1cc(-c2cnc3c(NCC(C)(C)O)cc(Oc4ccc(F)nc4)nn23)ccc1C(=O)NC1CC1 [Example 410, N-cyclopropyl-4-{6-[(6-fluoropyridin-3-yl)oxy]-8-[(2-hydroxy-2-methylpropyl)amino]imidazo[1,2-b]pyridazin-3-yl}-2-methylbenzamide]	0.5
Cc1cc(-c2cnc3c(NCC4CCCCO4)cc(-c4ccncc4)nn23)ccc1C(=O)NC1CC1 (racemic) [Example 37, (RS)—N-cyclopropyl-2-methyl-4-{6-(pyridin-4-yl)-8-[(tetrahydro-2H-pyran-2-ylmethyl)amino]imidazo[1,2-b]pyridazin-3-yl}benzamide]	< 1
Cc1cc(-c2cnc3c(NCC(C)(C)O)cc(Oc4ccc(F)c(F)c4)nn23)ccc1C(=O)NC1CC1 [Example 254, N-cyclopropyl-4-{6-(3,4-difluorophenoxy)-8-[(2-hydroxy-2-methylpropyl)amino]imidazo[1,2-b]pyridazin-3-yl}-2-methylbenzamide]	0.1
Cc1cc(-c2cnc3c(NCC(C)(C)O)cc(Oc4ccc(N5CCNCC5)cc4)nn23)ccc1C(=O)NC1CC1 [Example 320, N-cyclopropyl-4-{8-[(2-hydroxy-2-methylpropyl)amino]-6-[4-(piperazin-1-yl)phenoxy]imidazo [1,2-b]pyridazin-3-yl}-2-methylbenzamide]	3.3
CNC(=O)c1ccc(-c2cnc3c(NCCOC)cc(Oc4ccc(F)c(F)c4)nn23)cc1C [Example 582, 4-{6-(3,4-difluorophenoxy)-8-[(2-methoxyethyl)a-mino]imidazo[1,2-b]pyridazin-3-yl}-N,2-dimethylbenzamide]	3.8
Cc1cc(-c2cnc3c(NCC(C)(C)O)cc(NC4CCNC4)nn23)ccc1C(=O)NC1CC1 (racemic) [Example 272, (RS)—N-cyclopropyl-4-{8-[(2-hydroxy-2-methylpropyl)amino]-6-(pyrrolidin-3-ylamino)imidazo[1,2-b]pyridazin-3-yl}-2-methylbenzamide]	21.1
CC(C)CNc1cc(Cl)nn2c(-c3ccc(C(=O)NC4CC4)c(Cl)c3)cnc12 [Example 181, 2-Chloro-4-{6-chloro-8-[(2-methylpropyl)amino]imidazo[1,2-b]pyridazin-3-yl}-N-cyclopropyl-benzamide]	39.9
Cc1cc(-c2cnc3c(NCC4CCS(=O)(=O)C4)cc(Oc4cccc(F)c4)nn23)ccc1C(=O)NC1CC1 (centres unmarked) [Example 327, N-cyclopropyl-4-[8-{[(1,1-dioxidotetrahydro-thiophen-3-yl)methyl]amino}-6-(3-fluorophenoxy)imidazo[1,2-b]pyridazin-3-yl]-2-methylbenzamide]	0.3
Cc1cc(-c2cnc3c(NCCC(F)(F)F)cc(Nc4cccc(F)c4)nn23)ccc1C(=O)NC1CC1 [Example 324, N-cyclopropyl-4-{6-[(3-fluorophenyl)amino]-8-[(3,3,3-trifluoropropyl)amino]imidazo[1,2-b]pyridazin-3-yl}-2-methyl-benzamide]	0.3
Cc1ccc(Cl)cc1Nc1cc(NCC(C)(C)O)c2ncc(-c3ccc(C(=O)NC4CC4)c(C)c3)n2n1 [Example 404, 4-{6-[(5-chloro-2-methylphenyl)amino]-8-[(2-hydroxy-2-methylpropyl)amino]imidazo[1,2-b]pyridazin-3-yl}-N-cyclopropyl-2-methylbenzamide]	0.3
C/C=C/c1cc(NCCC(F)(F)F)c2ncc(-c3ccc(-c4cnc(C5CC5)[nH]4)cc3)n2n1 [Example 16, 3-[4-(2-Cyclopropyl-1H-imidazol-5-yl)phenyl]-6-[(1E)-prop-1-en-1-yl]-N-(3,3,3-trifluoropropyl)imidazo[1,2-b]pyridazin-8-amine]	27.3
Cc1cc(-c2cnc3c(NCCC(F)(F)F)cc(SC4CCCCC4)nn23)ccc1C(=O)NC1CC1 [Example 171, 4-{6-(cyclohexylsulfanyl)-8-[(3,3,3-trifluoropropyl)amino]imidazo [1,2-b]pyridazin-3-yl}-N-cyclopropyl-2-methylbenzamide]	0.8
